Measured values from paper PMC6874667, “A conserved odorant binding protein is required for essential amino acid detection in Drosophila” (Communications Biology, 2019).
Where a name gives a salt, the structure may show the parent alone.

The compounds below were run against T1, OBP19b (Drosophila melanogaster, UniProt Q9VR95) (assay: competitive NPN fluorescence displacement, single dose […]). Details: not given.
T1 construct: mature OBP19b without its native signal peptide
T1 sequence (Q9VR95 34-163): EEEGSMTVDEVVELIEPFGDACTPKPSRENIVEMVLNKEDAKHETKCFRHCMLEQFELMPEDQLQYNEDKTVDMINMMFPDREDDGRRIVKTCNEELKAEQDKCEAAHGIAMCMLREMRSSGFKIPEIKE
Type: binding

| Structure (SMILES) | competitive NPN fluorescence displacement, single dose 40 μM |
| --- | --- |
| COc1ccc2cc3[n+](cc2c1OC)CCc1cc2c(cc1-3)OCO2 [berberine] | The highest level of fluorescence displacement was induced by papaverine, berberine, 2-phenylethyl isothiocyanate |
| COc1ccc(Cc2nccc3cc(OC)c(OC)cc23)cc1OC [papaverine] | The highest level of fluorescence displacement was induced by papaverine, berberine, 2-phenylethyl isothiocyanate |

These compounds were tested against T1, OBP19b (assay: direct fluorescence titration with fluorescent probe). Details: not given.
Type: binding

| Structure (SMILES) | Kd [µM] |
| --- | --- |
| c1ccc(Nc2cccc3ccccc23)cc1 [NPN, N-phenyl-1-naphthylamine] | 4.1 ± 0.9 |

These compounds were tested against T1, OBP19b (assay: biochemical). Details: NPN displacement; buffer blank 13.4 % not subtracted.
Set-up: competitive NPN probe displacement from recombinant OBP19b, fluorescence 340/415 nm, single concentration, per cent fluorescence displacement
Experimental: To measure the affinity of OBP19b to ligands, a competitive screening assay was performed at 23 °C using a 96-well microplate format and a Victor3 V microplate reader (PerkinElmer Life Sciences) with 25 and 5 nm slits for excitation and emission, respectively. The excitation wavelength was 340 nm, and the fluorescence emission intensity was recorded at 415 nm. First, a wide screening array involving various ligand compounds was performed. Each well contained 200 µL of 2 µM OBP19b with 4 µM NPN dissolved in 50 mM sodium phosphate buffer at pH 7.5. Fatty acids and bitter compounds were tested in the µM range, whereas sugars, amino acids, vitamins, acids, amines, and isothiocyanate compounds were tested in the mM range. All tested compounds were dissolved in 10% methanol except amino acids, which were dissolved in 50 mM sodium phosphate buffer at pH 7.5. Based on the results of the first screen, the 20 L-amino acids, certain D-amino acids and three nonproteinogenic amino acids were tested by adding 100 µL of a 30 mM ligand stock solution to the microplate wells to obtain a final concentration of 15 mM, and then the solution was mixed. Significant differences using one-way analysis of variance (ANOVA) followed by Dunnett’s test were observed compared to the buffer (***p < 0.001; **p < 0.01). The competitive-binding curves were identified by titration of OBP19b/NPN complex with aliquots of 50 mM ligand to final concentration ranging from 0 to 20 mM. The dissociation constants (Kdapp) of each compound were calculated according to the corresponding IC50 values (the concentration of ligands required to halve the initial fluorescence value of NPN) using the following equation: Kdapp = [IC50]/(1 + […]/KNPN), where [NPN] is the free concentration of NPN. The reported Kdapp values are the average of three measurements performed on three independently experiments.  Fig. 2 Binding properties of OBP19b with a competitive fluorescent assay. The fluorescent displacement of the fluorescent probe NPN by various taste compounds was evaluated by adding aliquots of 50 mM ligand (dissolved in 50 mM sodium phosphate buffer at pH 7.5) to final concentration ranging from 0 to 20 mM. a Fatty acid esters and bitter compounds were tested at a final concentration of 40 µM. b Amino acids, vitamins, acids, amines, trigeminal (isothiocyanate), and sugars compounds were tested at a 15 mM final concentration. c Fluorescent displacement of 20 L-amino acids, including L-phenylalanine (L-Phe: magenta color), L-glutamine (L-Gln: green) and L-alanine (L-Ala: cyan); three nonproteinogenic amino acids L-ornithine (L-Orn), L-canavanine (L-Can), L-citrulline (L-Cit); and three D-amino acids (D-phenylalanine: orange, D-glutamine: blue, and D-alanine: gray). Dots indicate essential amino acids. Statistical differences were determined using one-way ANOVA followed by Dunnett’s test (***p < 0.001; **p < 0.01). d Competitive-binding curves of L-Phe and L-Gln (showing the lowest Kdapp), L-Ala (negative control), and their three corresponding D-isomers. Data values represent the mean ± SEM.

| inhibition at 15000 µM [%] | Structure (SMILES) |
| --- | --- |
| 23.5 | C[C@@H](N)C(=O)O [D-alanine] |
| 46.2 | N[C@@H](CO)C(=O)O [L-serine] |
| 16.2 | CC(C)[C@H](N)C(=O)O [L-valine] |
| 27.2 | C[C@H](N)C(=O)O [L-alanine] |
| 22.8 | CC(C)C[C@H](N)C(=O)O [L-leucine] |
| 37.3 | CSCC[C@H](N)C(=O)O [L-methionine] |
| 22.8 | CC[C@H](C)[C@H](N)C(=O)O [L-isoleucine] |
| 17.8 | C[C@@H](O)[C@H](N)C(=O)O [L-threonine] |
| -14.4 | N[C@@H](CS)C(=O)O [L-cysteine] |

Second part, the compound before the results:

| Structure (SMILES) | inhibition at 15000 µM [%] |
| --- | --- |
| N[C@@H](Cc1c[nH]c2ccccc12)C(=O)O [L-tryptophan] | 36.2 |
| NC(N)=NOCC[C@H](N)C(=O)O [L-canavanine sulfate salt] | 22.2 |
| NC(=O)CC[C@@H](N)C(=O)O [D-glutamine] | 22.6 |
| N=C(N)NCCC[C@H](N)C(=O)O [L-arginine] | 40.5 |
| O=C(O)[C@@H]1CCCN1 [L-proline] | 20.1 |
| N[C@H](Cc1ccccc1)C(=O)O [D-phenylalanine] | 28.3 |
| NCCC[C@H](N)C(=O)O [L-ornithine dihydro chloride] | 25.1 |
| NCC(=O)O [Glycine] | 31.6 |
| NC(=O)C[C@H](N)C(=O)O [L-asparagine] | 41.2 |
| N[C@@H](CCC(=O)O)C(=O)O [L-glutamic acid] | -0.061 |
| NCCCC[C@H](N)C(=O)O [L-lysine] | 20.2 |
| N[C@@H](Cc1ccccc1)C(=O)O [L-Phe, L-phenylalanine] | 44 |
| N[C@@H](Cc1ccc(O)cc1)C(=O)O [L-tyrosine] | -122 |
| N[C@@H](Cc1c[nH]cn1)C(=O)O [L-histidine] | 7.44 |
| NC(=O)CC[C@H](N)C(=O)O [L-Gln, L-glutamine] | 40.7 |
| N[C@@H](CC(=O)O)C(=O)O [L-aspartic acid] | 43.4 |
